One assay deals with GSK3β (h) (Homo sapiens, UniProt P49841). Put plainly: GSK-3β human kinase assay (SPA). In kind it is biochemical. The following applies: read-out: GSK3B pIC50 (converted). The method, boiled down:
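Radiometric SPA read-out: after EDTA stop, biotinylated 33P-labelled peptide bound streptavidin PVT beads and was imaged on Leadseeker. Reaction: 60 min, room temperature, GSK3β (h) at 1 μg/ml, 1 μM substrate peptide, 1 μM ATP with 2 nM [γ-33P]ATP, Tris pH 7.4/MgCl2/DTT buffer.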

A further assay concerns the target CDK1/CyclinB (h) (Homo sapiens, UniProt P06493). Put plainly: CDK1/CyclinB human kinase assay (FRET). The format is biochemical. To be noted: read-out: CDK1 pIC50 (converted). Put shortly: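 Z'-LYTE FRET format: 0.2 μg/ml enzyme with 2 μM Ser/Thr peptide 12 and 10 μM ATP in 50 mM Hepes pH 7.5, 10 mM MgCl2, 1 mM EGTA, 0.01% Brij-35, 60 min at room temperature. Protease development 60 min; coumarin/fluorescein emission ratio (460/538 nm, excitation 390 nm) reports phosphorylation.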

The next assay concerns MCF-7. In words: Cellular proliferation assay (Alamar blue), MCF-7. To be noted: Homo sapiens, MCF7, MCF-7 cells, 72 hours with compound, 10% FCS, read-out: pIC50 MCF-7 (converted). In kind it is cell-based. The method, boiled down: (§1)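 Proliferation was assessed over 72 h of compound treatment, following 24 h of seeding without compound, under 10% FCS, 37° C. and 5% CO2. Fluorescent resazurin product was measured and compared with control cells.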
(In general: Resazurin is reduced to fluorescent resorufin, in cell work by metabolically active cells.)

Another assay relates to DU-145. In words: Cellular proliferation assay (Alamar blue), DU-145. The format is cell-based. To be noted: Homo sapiens, DU-145 cells, 72 hours with compound, 10% FCS, read-out: pIC50 DU-145 (converted). Put shortly: as §1
The target of another assay is AuroraB (h) (Homo sapiens, UniProt Q96GD4). Put plainly: Aurora-B human kinase assay (SPA). The format is biochemical. To be noted: read-out: AuroraB pIC50 (converted). The method, boiled down:
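Scintillation proximity assay: AuroraB (h) at 0.5 μg/ml with 3 μM biotinylated peptide, 0.5 μM ATP and 2.2 nM [γ-33P]ATP in 60 mM Hepes pH 7.5, 3 mM MgCl2, 3 mM MnCl2, 2 mM DTT. 60 min at room temperature, EDTA stop, streptavidin PVT beads read on Leadseeker.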

A further assay deals with SKOV3. In words: Cellular proliferation assay (Alamar blue), SKOV3. To be noted: Homo sapiens, SK-OV-3, SKOV3 cells, 72 hours with compound, 10% FCS, read-out: pIC50 SKOV3 (converted). In kind it is cell-based. Put shortly:
as §1

The test system of another assay is H1299. In words: Cellular proliferation assay (Alamar blue), H1299. In kind it is cell-based. To be noted: Homo sapiens, NCI-H1299, 72 h, H1299 cells, 72 hours with compound, 10% FCS, read-out: pIC50 H1299 (converted). Put shortly: as §1
A further assay has as its system Colo205. Put plainly: Cellular proliferation assay (Alamar blue), Colo205. The format is cell-based. To be noted: Homo sapiens, COLO 205, Colo205 cells, 72 hours with compound, 10% FCS, read-out: pIC50 Colo205 (converted). Put shortly:
as §1

The test system of a further assay is PC-3. Put plainly: Cellular proliferation assay (Alamar blue), PC-3. The format is cell-based. To be noted: Homo sapiens, PC-3, 72 h, PC-3 cells, 72 hours with compound, 10% FCS, read-out: pIC50 PC-3 (converted). Put shortly:
as §1

Where “and” joins values, the source holds several entries; their conditions need not be identical. Equal values may be shown once. Some results are limits rather than exact numbers.

GSK3β (h), sequence (P49841 whole entry): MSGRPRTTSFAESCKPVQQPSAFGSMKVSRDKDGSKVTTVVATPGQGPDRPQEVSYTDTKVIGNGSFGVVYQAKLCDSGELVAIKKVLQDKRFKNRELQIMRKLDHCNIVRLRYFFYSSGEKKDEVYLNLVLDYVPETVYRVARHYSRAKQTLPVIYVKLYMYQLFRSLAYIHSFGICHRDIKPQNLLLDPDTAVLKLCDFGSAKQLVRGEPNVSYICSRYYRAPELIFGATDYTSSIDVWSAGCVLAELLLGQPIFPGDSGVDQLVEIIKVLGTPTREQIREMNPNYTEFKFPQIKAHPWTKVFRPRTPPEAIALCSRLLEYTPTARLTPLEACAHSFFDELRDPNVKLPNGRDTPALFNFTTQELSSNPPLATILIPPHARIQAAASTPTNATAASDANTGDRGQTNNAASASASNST
CDK1/CyclinB (h), sequence (P06493 whole entry): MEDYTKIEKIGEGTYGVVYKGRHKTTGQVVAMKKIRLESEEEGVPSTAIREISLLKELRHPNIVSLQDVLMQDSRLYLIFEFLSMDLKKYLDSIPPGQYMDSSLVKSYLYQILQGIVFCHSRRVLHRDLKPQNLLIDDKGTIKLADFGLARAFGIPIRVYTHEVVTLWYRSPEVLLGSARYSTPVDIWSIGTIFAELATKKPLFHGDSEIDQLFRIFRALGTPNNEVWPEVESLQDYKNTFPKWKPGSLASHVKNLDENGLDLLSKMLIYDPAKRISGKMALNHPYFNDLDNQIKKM
CDK1/CyclinB (h), sequence (P14635 whole entry partner): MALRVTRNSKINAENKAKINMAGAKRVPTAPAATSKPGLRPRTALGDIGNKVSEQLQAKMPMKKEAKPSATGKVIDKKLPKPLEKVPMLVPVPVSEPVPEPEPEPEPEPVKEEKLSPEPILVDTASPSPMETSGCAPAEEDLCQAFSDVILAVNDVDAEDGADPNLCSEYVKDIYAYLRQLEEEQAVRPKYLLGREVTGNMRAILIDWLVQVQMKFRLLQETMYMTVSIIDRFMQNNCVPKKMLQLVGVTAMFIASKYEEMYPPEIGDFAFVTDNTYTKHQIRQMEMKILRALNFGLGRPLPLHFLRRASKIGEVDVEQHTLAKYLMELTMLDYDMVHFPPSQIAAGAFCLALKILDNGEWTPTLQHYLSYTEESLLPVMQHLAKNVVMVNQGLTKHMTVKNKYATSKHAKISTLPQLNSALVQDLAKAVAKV
AuroraB (h), sequence (Q96GD4 whole entry): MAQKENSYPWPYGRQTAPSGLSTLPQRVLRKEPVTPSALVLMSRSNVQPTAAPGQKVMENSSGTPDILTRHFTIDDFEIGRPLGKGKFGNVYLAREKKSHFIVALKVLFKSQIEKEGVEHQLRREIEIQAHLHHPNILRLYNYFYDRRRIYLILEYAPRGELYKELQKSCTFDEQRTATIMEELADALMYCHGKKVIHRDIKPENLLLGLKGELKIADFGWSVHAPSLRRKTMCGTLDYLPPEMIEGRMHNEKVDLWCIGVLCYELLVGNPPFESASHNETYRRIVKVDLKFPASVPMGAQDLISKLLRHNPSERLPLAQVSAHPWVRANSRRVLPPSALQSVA

Take `COc1ccc2cc1OCCCC(=O)N(C)CCCNc1ncnc3c1/C(=C/N2)C(=O)N3` [Compound 9]: the IC50 is 20.9 nM and 23.4 nM on GSK3β (h); 132 nM and 120 nM at CDK1/CyclinB (h); less than 302 nM in the assay on MCF-7; less than 302 nM with DU-145; 50.1 nM and 51.3 nM on AuroraB (h); 339 nM in the assay with SKOV3. In addition, the IC50 in the assay with H1299 is 407 nM; in the assay on Colo205, 354 nM; in the assay on PC-3 it was 457 nM.

Consider `COc1ccc2cc1OCCCCCC(=O)N1CCN(CC1)c1ncnc3c1/C(=C/N2)C(=O)N3` [Compound 18], for which the IC50 on GSK3β (h) was 891 nM; on CDK1/CyclinB (h), greater than 10000 nM; with MCF-7 it was 5750 nM; in the assay on DU-145 it was greater than 10000 nM; on AuroraB (h) it was greater than 10000 nM; with SKOV3, 2090 nM. The IC50 in the assay on H1299 was greater than 10000 nM; with Colo205, greater than 10000 nM; in the assay on PC-3, 2340 nM.

As for `COc1ccc2cc1OCCCC(=O)N(C)CCCN(C)c1ncnc3c1/C(=C/N2)C(=O)N3` [Compound 31], the IC50 on GSK3β (h) was 309 nM and 313 nM; at CDK1/CyclinB (h), 4680 nM; in the assay on MCF-7, 575 nM; with DU-145 it was 1230 nM; on AuroraB (h), 1380 nM and 1580 nM; in the assay with SKOV3, 1350 nM. Moreover, the IC50 is 646 nM with H1299, 1950 nM with Colo205 and 1660 nM with PC-3.

Values taken from patent publication US8338422B2, “Indolin-2-ones and aza-indolin-2-ones” (Janssen Pharmaceutica NV, priority 2007, dated 2012).
